Experimental data: PMC7044166 (Scientific Reports, 2020)
Where “and” joins values, the source holds several entries; their conditions need not be identical. Identical values can stand only once. Like-named read-outs stand apart in the source and are kept apart here.

Experiments:
[1] = Stability of DSV, TAM and TOH in rat plasma under storage and treatment conditions; type: in vitro ADME; settings: six determinations; for recovery at 56 h / recovery at 6 h / recovery / recovery at 30 days: Wistar, rat, rat plasma; for recovery at 56 h: rat plasma (prepared QC samples in the auto-injector), 10 °C, read-out: Auto-sampler stability, mean recovery (%) ± RSD; for recovery at 6 h / recovery / recovery at 30 days: rat plasma (spiked QC samples); for recovery at 6 h: 25 °C, read-out: Short-term stability, mean recovery (%) ± RSD; for recovery / recovery at 30 days: −30 °C; for recovery: 3 cycles, read-out: Freeze-thaw stability, mean recovery (%) ± RSD; for recovery at 30 days: read-out: Long-term stability, mean recovery (%) ± RSD; for recovery at 3 months: analyte solutions, 4 °C, read-out: Refrigerator stability, mean recovery (%) ± RSD
Method: This ensures that no detectable degradation was noticed and that all analytes were stable under the studied conditions. The analytes’ solutions were also stable when kept refrigerated at 4 °C for 3 months or at room temperature for up to 6 h.
Samples were subjected to different storage conditions. Auto-sampler stability was assessed by leaving prepared samples in the auto-injector (10 °C, 56 h) before the injection. Short-term (bench top) stability was evaluated by analyzing samples after being stored at room temperature (25 °C, 6 h). On the other hand, long-term stability was assessed by analyzing samples which had been frozen before analysis (−30 °C, 30 days). Stability of samples was also assessed following three freeze–thaw cycles (frozen at −30 °C, thawed at 25 °C).

[2] = Pharmacokinetic interaction study of DSV and TAM/TOH after oral single or co-administration to Wistar rats (UPLC-MS/MS of plasma, NCA); type: in vivo; settings: for AUC(0-inf) / Tmax / half-life / Cmax: male, Wistar, rat, plasma, po, mean ± SD, n = 5; for half-life: read-out: t½ (converted); for Cmax: rat plasma; for change in PK parameters following co-administration compared with single administration: Group III (DSV 50 mg/kg + TAM 10 mg/kg, oral) vs Group I (DSV) and Group II (TAM), only exception tmax of TOH; for M.R.(%) metabolite ratio: ratio of AUC0-∞ of TOH to that of TAM, rats
Method: The rats were acclimatized for seven days before starting the experiment. All rats were kept in a well-ventilated room and under standard laboratory conditions; 12 h day/night cycle, average temperature of 25 ± 2 °C, and average relative humidity of 50 ± 2%.
Three group of randomly distributed rats (n = 5) were used to conduct the study. […] Following drug administration, orbital blood samples (0.3 mL) were collected into a series of 1.5 mL polythene heparinized tubes prior to dosing (0 time) and at different time intervals following the drug administration; 0.25, 0.5, 1, 2, 4, 5, 12, 24, and 48 h. Immediate centrifugation (4,500 rpm) of collected blood samples was performed at 4 °C for 30 min. The resulting plasma samples were then stored at −20 °C until the day of analysis. Plasma samples (50 µL) were separately mixed with 50 µL OND, IS, (50 ng/mL), 150 µL of 2% formic acid, and finally completed to 1-mL volume with acetonitrile. Sample preparation was then carried out exactly as mentioned under the experimental section. […] These concentrations were then plotted versus the corresponding withdrawal time.
Plasma concentration-time data were treated by the non-compartmental analysis (NCA) method using PKSolver Add-In Excel 2010. Different PK parameters were calculated. They included maximum drug plasma concentration (Cmax) and the time required to reach the maximum plasma concentration (tmax). Both Cmax and tmax were derived from plasma concentration-time curve simply by visual inspection of the data. Using the PKSover, the elimination rate constant (Kel), the half-life (t1/2), the area under the plasma concentration-time curve from 0 time to the last sampling time t (AUC0-t), the area under the plasma concentration-time curve from 0 time to ∞ (AUC0-∞), and the apparent oral clearance (CL/F) were calculated. Kel was calculated from the slope of the plasma concentration-time curve during the elimination phase and from which t1/2 was derived, t1/2 = 0.693/Kel. The linear trapezoidal rule was used to calculate AUC0-t. The summation of AUC0-t and the extrapolated area from time t to ∞, calculated from the last measured concentration (Clast), result in total AUC from 0 time to ∞, AUC0-∞, AUC0-∞ = AUC0-t + (Clast/Kel). CL/F was calculated by dividing the dose by AUC0-∞. The relative bioavailability (R.B.) was obtained from the ratio of AUC0-∞ of the treated group to AUC0-∞ of the control group.

[3] = parameters: method as in earlier work; settings: cited from earlier work
[4] = tested on: estrogen-dependent cell proliferation; settings: relative to TAM, cited from earlier work
[5] = high concentration level (800, 400, 400 ng/mL for DSV, TAM, TOH)
[6] = oral co-administration of DSV 50 mg/kg and TAM 10 mg/kg (TOH as metabolite of TAM)
[7] = single oral administration, DSV 50 mg/kg or TAM 10 mg/kg (TOH as metabolite of TAM)

| Structure (SMILES) | recovery at 56 h [1, 5] [%] | recovery at 56 h ([1]; low concentration level) [%] | recovery at 6 h [1, 5] [%] | recovery at 6 h ([1]; low concentration level) [%] | recovery ([1]; low concentration level) [%] | recovery at 30 days [1, 5] [%] | recovery at 30 days ([1]; low concentration level) [%] | recovery at 3 months [1, 5] [%] | recovery at 3 months ([1]; low concentration level) [%] | AUC(0-inf) [2, 6] [ng·h/mL] | Tmax [2, 6] [h] | half-life [2, 6] [h] | Cmax [2, 6] [ng/mL] | AUC(0-inf) [2, 7] [ng·h/mL] | Tmax [2, 7] [h] | half-life [2, 7] [h] | Cmax [2, 7] [ng/mL] | change in PK parameters following co-administration compared with single administration [2] | further results |
| --- | --- | --- | --- | --- | --- | --- | --- | --- | --- | --- | --- | --- | --- | --- | --- | --- | --- | --- | --- |
| CC/C(=C(\c1ccccc1)c1ccc(OCCN(C)C)cc1)c1ccccc1 [TAM, Tamoxifen] | 93.5 | 98.2 | 96.8 | 98.2 | 96.1 | 97.3 | 99.7 | 96.6 | 98.9 | 3510 ± 464 | 3.03 ± 0.66 | 17.7 ± 3.42 | 288 ± 81 | 3880 ± 407 | 2.03 ± 0.95 | 15.8 ± 5.18 | 307 ± 109 |  |  |
| COc1c(-c2ccc3cc(NS(C)(=O)=O)ccc3c2)cc(-n2ccc(=O)[nH]c2=O)cc1C(C)(C)C [DSV, Dasabuvir] | 98.5 | 95.5 | 95 | 96.3 | 98.5 | 98.8 | 96.8 | 97.6 | 96.2 | 4660 ± 687 | 4.98 ± 0.61 | 19.7 ± 5.41 | 159 ± 49 | 4270 ± 754 | 4.95 ± 1.07 | 17.9 ± 5.93 | 144 ± 26.5 | no significant changes | pKa (pK1) [3]: 8.2; pKa (pK2) [3]: 9.2 |
| CC/C(=C(\c1ccc(O)cc1)c1ccc(OCCN(C)C)cc1)c1ccccc1 [TOH, 4-hydroxy tamoxifen] | 95.2 | 99.7 | 98.9 | 96.9 | 97.5 | 95.8 | 99 | 97 | 98 | 4550 ± 913 | 5.03 ± 0.66 | 19.7 ± 1.41 | 164 ± 54.5 | 4730 ± 774 | 2.03 ± 0.95 | 28.8 ± 1.98 | 172 ± 54 | no significant changes | pka [3]: 8.66 and 9.45; M.R.(%) metabolite ratio ([2]; oral co-administration of DSV 50 mg/kg and TAM 10 mg/kg): 129.65 ± 10.88%; M.R.(%) metabolite ratio ([2]; single oral TAM 10 mg/kg): 121.86 ± 11%; reported estrogenic properties, times more potent than TAM ([4]; at least, reported): 30–100 times; times more potent than TAM in inhibiting estrogen-dependent cell proliferation [4]: 30 to 100 times |
